In publication PMC12846378 (Viruses, 2026):
“And” between values parts separate entries of the source, which are not always exact repeats. Identical values can stand only once. Like-named read-outs stand apart in the source and are kept apart here.

Assays:
[1] = test system: rLCMV/GFP-P2A-NP; format: cell-based
[2] = test system: rLCMV/GFP-P2A-NP; format: cell-based; remark: listed apart in the source
[3] = test system: rLCMV/GFP-P2A-NP; format: cell-based; remark: listed apart in the source
[4] = test system: rJUNV/GFP-P2A-NP; test: organism not typed; format: cell-based
[5] = test system: rJUNV/GFP-P2A-NP; test: organism not typed; format: cell-based; remark: listed apart in the source
[6] = biological target: LCMV vRNP (Mammarenavirus choriomeningitidis (LCMV), UniProt P14240); format: cell-based
[7] = test system: LASV vRNP; format: cell-based
[8] = test system: LCMV Z; format: cell-based
[9] = test system: rLCMV/GFP-P2A-NP; format: cell-based; remark: listed apart in the source
[10] = test system: rLCMV/GFP-P2A-NP; test: organism not typed; format: cell-based
[11] = test system: ISG15; format: cell-based
[12] = test system: MX1; format: cell-based
[13] = test system: LCMV NP RNA; format: cell-based
[14] = test system: A549 cells
[15] = in vitro; settings: African green monkey
[16] = test system: A549 cells; remark: listed apart in the source
[17] = test system: Vero E6 cells
[18] = test system: A549 cells; remark: listed apart in the source
[19] = test system: HEK293T cells
[20] = test system: HEK293T cells; remark: listed apart in the source

O=C(/C=C\n1cnc(-c2cc(C(F)(F)F)cc(C(F)(F)F)c2)n1)NNc1cnccn1 [SE, Selinexor]
production of infectious virus (titers in CCS) [1]: potent inhibitory effect on LCMV multiplication

O=C(/C=C\n1cnc(-c2cc(C(F)(F)F)cc(C(F)(F)F)c2)n1)NNc1ccccn1 [VE, verdinexor]
reduction in infectivity (GFP signal) [2]: ≥ 80% | EC50 [3]: 0.07 µM | EC50 [4]: 0.24 µM | antiviral activity against JUNV [4]: potent antiviral activity | EC50 ([4]; Vero C1008): 0.239 µM | antiviral activity against JUNV [5]: potent antiviral activity | EC50 ([5]; A549): 0.036 µM | reduction in virus peak titers [1]: ~2 log | inhibition of LCMV MG activity [6]: potently inhibited | inhibition of LASV MG activity [7]: potently inhibited | effect on Z budding activity [8]: significant inhibitory effect | effect on LCMV multiplication in MAVS-KO A549 cells [9]: strong dose-dependent inhibitory effect | inhibition at 0.3334 µM [10]: 77.6% | inhibition at 1 µM [10]: 97.05 ± 0.41% | expression level of ISG15 [11]: reduced expression levels | expression level of MX1 [12]: reduced expression levels | effect on virus RNA replication and transcription [13]: inhibited to a similar degree both virus replication and transcription | reduction in cell viability / cytotoxicity ([14]; human): ≤ 20% | CC50 [15]: > 30 µM

CNC1=Nc2ccc(Cl)cc2C(c2ccc[nH]2)=NC1 [RO, Ro-24-7429]
reduction in infectivity (GFP signal) [2]: ≥ 80% | EC50 ([3]; read-out: EC50): 0.889 µM and 0.89 µM | antiviral activity against JUNV [4]: less efficient | EC50 ([4]; read-out: EC50): 15.3 µM | antiviral activity against JUNV [5]: less efficient | production of infectious virus (titers in CCS) [1]: reduced efficacy at 1 µM compared to 5 µM | inhibition of LCMV MG activity [6]: significantly less efficient | inhibition of LASV MG activity [7]: significantly less efficient | effect on Z budding activity [8]: did not affect | effect on virus RNA replication and transcription [13]: inhibited to a similar degree both virus replication and transcription | reduction in cell viability / cytotoxicity [14]: ≤ 20% | CC50 [16]: > 20 µM | CC50 [17]: > 30 µM | CC50 [18]: > 30 µM | CC50 [19]: > 20 µM | CC50 [20]: > 1 µM
